Values quoted from earlier work, collected in patent US7125861B2, “Water-soluble chitosan-indole-3-propionic acid conjugates” (priority 2003, dated 2006).

Conditions: background statement on unconjugated indole-3-propionic acid

For `O=C(O)CCc1c[nH]c2ccccc12` [indole-3-propionic acid, 3-(3-Indolyl)propanoic acid], the solubility in water is given as “not water soluble”.
